Source: ChEMBL document CHEMBL1201862, “PubChem BioAssay data set” (2004)
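These data come from cells grown in 96-well plates and exposed to compound for 48 hours at five concentrations. At the GI50, growth is halved.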 The source made the active and inactive calls. Cut-off read from the data, not from the text of the source: active = GI50 up to about 1.1 µM and inactive = higher.

Assays:
Assay in all cases: NCI tumour cell line growth inhibition, 48 h
CCRF-CEM = system: CCRF-CEM
K562 = system: K562
MOLT-4 = system: MOLT-4
OVCAR-4 = system: OVCAR-4
UACC-62 = system: UACC-62
A549 = system: A549
IGROV-1 = system: IGROV-1
OVCAR-3 = system: OVCAR-3
HCT-116 = system: HCT-116
HL-60 = system: HL-60
SR = system: SR
HCT-15 = system: HCT-15
ACHN = system: ACHN
SK-MEL-5 = system: SK-MEL-5
A498 = system: A498
NCI-H460 = system: NCI-H460
RXF 393 = system: RXF 393

Structure (SMILES) | GI50 (CCRF-CEM) | GI50 (K562) | GI50 (MOLT-4) | GI50 (OVCAR-4) | GI50 (UACC-62) | GI50 (A549) | GI50 (IGROV-1) | GI50 (OVCAR-3) | GI50 (HCT-116) | GI50 (HL-60) | GI50 (SR) | GI50 (HCT-15) | GI50 (ACHN) | GI50 (SK-MEL-5) | GI50 (A498) | GI50 (NCI-H460) | GI50 (RXF 393)
C[n+]1cn(CC(=O)c2ccccc2)c(C(N)=O)c1N | > 100 µM (inactive) | > 10 µM (inactive) | > 100 µM (inactive) | > 100 µM (inactive) | > 100 µM (inactive) | > 100 µM (inactive) | > 100 µM (inactive) | > 100 µM (inactive) | 24.2 µM (inactive) | 0.337 µM (active) | > 100 µM (inactive) | 80.7 µM | > 100 µM (inactive) | 33 µM (inactive) | > 100 µM (inactive) | > 100 µM (inactive) | –
O=c1[nH]c(=O)n(C2CC(O)C(CO)O2)cc1C#Cc1c(F)c(F)c(F)c(F)c1F (configuration not stated) | > 100 µM (inactive) | > 100 µM (inactive) | > 100 µM (inactive) | > 100 µM (inactive) | > 100 µM (inactive) | > 100 µM (inactive) | – | > 100 µM (inactive) | > 100 µM (inactive) | – | > 100 µM (inactive) | > 100 µM | > 100 µM (inactive) | > 100 µM (inactive) | – | > 100 µM (inactive) | –
COc1nc2c(OC)cccc2c(OC)c1C=O | > 100 µM (inactive) | 53.7 µM (inactive) | 61.5 µM (inactive) | – | > 100 µM (inactive) | > 100 µM (inactive) | > 100 µM (inactive) | > 100 µM (inactive) | 76.7 µM (inactive) | > 100 µM (inactive) | – | > 100 µM | > 100 µM (inactive) | > 100 µM (inactive) | – | > 100 µM (inactive) | > 100 µM (inactive)
CN(C)C=C1C(Cl)=C(C=O)CC(C=O)=C1Cl | 2.5 µM (inactive) | 3.03 µM (inactive) | 2.54 µM (inactive) | 14.4 µM (inactive) | 15.1 µM (inactive) | 86.9 µM (inactive) | 16.1 µM (inactive) | 13.5 µM (inactive) | – | 1.77 µM (inactive) | – | 3.42 µM | 12.9 µM (inactive) | 10.4 µM (inactive) | – | 20.7 µM (inactive) | 6.21 µM (inactive)
O=C(O)Cc1ccc2c(c1O)C(=O)c1c(ccc(CC(=O)O)c1O)C2=O | > 100 µM (inactive) | > 100 µM (inactive) | > 100 µM (inactive) | > 100 µM (inactive) | – | > 100 µM (inactive) | > 100 µM (inactive) | > 100 µM (inactive) | > 100 µM (inactive) | > 100 µM (inactive) | > 100 µM (inactive) | > 100 µM | > 100 µM (inactive) | > 100 µM (inactive) | > 100 µM (inactive) | > 100 µM (inactive) | –
COC(=O)C12C3C=CC(O3)C1C1C=CC2O1 (configuration not stated) | > 100 µM (inactive) | > 100 µM (inactive) | > 100 µM (inactive) | – | – | > 100 µM (inactive) | > 100 µM (inactive) | > 100 µM (inactive) | – | > 100 µM (inactive) | > 100 µM (inactive) | > 100 µM | > 100 µM (inactive) | > 100 µM (inactive) | – | > 100 µM (inactive) | > 100 µM (inactive)
COC(=O)/C(=N/O)C(C(=O)C=C(C)C)C(=O)C(=O)Nc1nc2ccc([N+](=O)[O-])cc2s1 (configuration not stated) | 24.7 µM (inactive) | 28.9 µM (inactive) | 23.9 µM (inactive) | 31.8 µM (inactive) | 32.6 µM (inactive) | 30.8 µM (inactive) | 36.9 µM (inactive) | 21.5 µM (inactive) | 41.7 µM (inactive) | 38.2 µM (inactive) | 38.1 µM (inactive) | 30.7 µM | 24.4 µM (inactive) | 43.8 µM (inactive) | 10.5 µM (inactive) | 37.9 µM (inactive) | –
Cc1cc(NS(=O)(=O)c2ccc(Nc3c4ccccc4nc4c(C(=O)Nc5ccc(S(=O)(=O)N=C(N)N)cc5)cccc34)cc2)no1 | > 100 µM (inactive) | > 100 µM (inactive) | > 100 µM (inactive) | > 100 µM (inactive) | > 100 µM (inactive) | > 100 µM (inactive) | > 100 µM (inactive) | > 100 µM (inactive) | > 100 µM (inactive) | – | – | > 100 µM | > 100 µM (inactive) | > 100 µM (inactive) | > 100 µM (inactive) | > 100 µM (inactive) | > 100 µM (inactive)
COC12OCCN(C)C1=CC(=O)C1N=NCC12 (configuration not stated) | > 100 µM (inactive) | > 100 µM (inactive) | > 100 µM (inactive) | – | > 100 µM (inactive) | > 100 µM (inactive) | > 100 µM (inactive) | > 100 µM (inactive) | > 100 µM (inactive) | > 100 µM (inactive) | – | > 100 µM | – | > 100 µM (inactive) | > 100 µM (inactive) | > 100 µM (inactive) | > 100 µM (inactive)
Cc1ccc(S(=O)(=O)O/N=C2\CCC\C2=C/c2ccccc2)cc1 | 58.6 µM (inactive) | 26.7 µM (inactive) | 13 µM (inactive) | 23.3 µM (inactive) | 8.45 µM (inactive) | 29.4 µM (inactive) | 26.2 µM (inactive) | 18.5 µM (inactive) | 12.4 µM (inactive) | 6.82 µM (inactive) | 16.4 µM (inactive) | 22.9 µM | 11.1 µM (inactive) | 14.8 µM (inactive) | – | 19.5 µM (inactive) | 20.3 µM (inactive)
O=C1Nc2cccc3ncn(c23)C2=C1CCCC2 | > 100 µM (inactive) | > 100 µM (inactive) | > 100 µM (inactive) | – | > 100 µM (inactive) | > 100 µM (inactive) | > 100 µM (inactive) | – | > 100 µM (inactive) | > 100 µM (inactive) | > 100 µM (inactive) | > 100 µM | > 100 µM (inactive) | > 100 µM (inactive) | – | > 100 µM (inactive) | > 100 µM (inactive)
COc1ccc2c(c1)CCCC1C3=NCCC3(C)CSC21 (configuration not stated) | 70.3 µM (inactive) | 31 µM (inactive) | 32.6 µM (inactive) | > 100 µM (inactive) | 55 µM (inactive) | > 100 µM (inactive) | > 100 µM (inactive) | 97.3 µM (inactive) | 37.5 µM (inactive) | 17.1 µM (inactive) | – | – | – | 42.8 µM (inactive) | – | 74 µM (inactive) | 95.5 µM (inactive)
CC(C)c1ccc(/C=C/c2cc(C(=O)NNC(=O)NC3CCCCC3)nc(S)n2)cc1 | – | – | – | > 100 µM (inactive) | > 100 µM (inactive) | > 100 µM (inactive) | > 100 µM (inactive) | > 100 µM (inactive) | > 100 µM (inactive) | – | – | > 100 µM | > 100 µM (inactive) | > 100 µM (inactive) | > 100 µM (inactive) | > 100 µM (inactive) | > 100 µM (inactive)
OCC(O)C(O)c1nn(-c2ccccc2)c2nc3cc(Cl)c(Cl)cc3nc12 (configuration not stated) | 35.2 µM (inactive) | 13.3 µM (inactive) | 13.7 µM (inactive) | 24.7 µM (inactive) | 29.4 µM (inactive) | 15.6 µM (inactive) | 24.6 µM (inactive) | 27.4 µM (inactive) | 16.8 µM (inactive) | 18.2 µM (inactive) | – | 23.6 µM | 19.5 µM (inactive) | 26.4 µM (inactive) | – | 27.7 µM (inactive) | 21.2 µM (inactive)
CC[P+]1(CC)CCCC1 | > 100 µM (inactive) | > 100 µM (inactive) | > 100 µM (inactive) | > 100 µM (inactive) | > 100 µM (inactive) | > 100 µM (inactive) | > 100 µM (inactive) | > 100 µM (inactive) | – | – | – | > 100 µM | > 100 µM (inactive) | > 100 µM (inactive) | > 10 µM (inactive) | > 100 µM (inactive) | > 100 µM (inactive)
CC1=CC2C(C=C1)S(=O)(=O)N1CC21c1ccccc1 (configuration not stated) | > 100 µM (inactive) | 69.2 µM (inactive) | – | – | 64.6 µM (inactive) | > 100 µM (inactive) | > 100 µM (inactive) | > 100 µM (inactive) | > 100 µM (inactive) | > 100 µM (inactive) | 90.8 µM (inactive) | > 100 µM | > 100 µM (inactive) | > 100 µM (inactive) | > 100 µM (inactive) | > 100 µM (inactive) | –
NC(=O)C(=Cc1ccc(C(O)P(=O)(O)O)cc1)C(N)=O (configuration not stated) | – | > 100 µM (inactive) | > 100 µM (inactive) | > 100 µM (inactive) | > 100 µM (inactive) | > 100 µM (inactive) | > 100 µM (inactive) | > 100 µM (inactive) | > 100 µM (inactive) | – | – | > 100 µM | > 100 µM (inactive) | > 100 µM (inactive) | > 100 µM (inactive) | > 100 µM (inactive) | > 100 µM (inactive)
CCC1(CN(C)C)CC/C(=C\c2ccc(OC)cc2)C1=O (configuration not stated) | 30 µM (inactive) | 40.9 µM (inactive) | 3.14 µM (inactive) | > 100 µM (inactive) | > 100 µM (inactive) | > 100 µM (inactive) | > 100 µM (inactive) | > 100 µM (inactive) | 93.1 µM (inactive) | – | – | 23.5 µM | > 100 µM (inactive) | 58.6 µM (inactive) | 84.1 µM (inactive) | > 100 µM (inactive) | > 100 µM (inactive)
C[C@@H](C1CCC2C3C(=CC(=O)[C@@]21C)[C@H](C)[C@]1(CCC(=O)O1)C1OC31)[C@H]1C[C@]2(C)O[C@@](C)(O1)OC2(C)C (some centres not stated) | > 100 µM (inactive) | > 100 µM (inactive) | > 100 µM (inactive) | – | > 100 µM (inactive) | > 100 µM (inactive) | > 100 µM (inactive) | – | > 100 µM (inactive) | > 100 µM (inactive) | – | > 100 µM | > 100 µM (inactive) | > 100 µM (inactive) | > 100 µM (inactive) | > 100 µM (inactive) | > 100 µM (inactive)
C/N=C(\S)N/N=C/C(C)=N/N/C(S)=N/C | – | – | 0.323 µM (active) | – | > 100 µM (inactive) | > 100 µM (inactive) | – | > 100 µM (inactive) | 0.0489 µM (active) | – | – | > 100 µM | > 100 µM (inactive) | > 100 µM (inactive) | 48.2 µM (inactive) | > 100 µM (inactive) | > 100 µM (inactive)
